Where two headings read alike, the source gives them in different places. Where no end group is shown, it is not given here.
Key:
L. lactis HP [1] = assay: Agarose-based diffusion assay of Nisin A S29 supernatants; type: cell-based, L. lactis spp cremoris; conditions: for Measurement of inhibitory zone, Average a + b + c: average of three replicates; for Measurement of inhibitory zone, L. lactis HP (a): replicate a; for Measurement of inhibitory zone, L. lactis HP (b): replicate b; for Measurement of inhibitory zone, L. lactis HP (c): replicate c
Protocol: The Nisin A S29 derivatives were retested using this assay (See FIG. 1).
The modified agarose-based assay was performed against 2 indicator strains, L. lactis spp cremoris HP (Table. 6) and Listeria monocytogenes LO28 (Table. 7).

[2] = literature reports; cited from earlier work
[3] = system: Gram-positive pathogens including Listeria monocytogenes and/or Staphylococcus aureus; conditions: cited from earlier work
pore formation = conditions: cited from earlier work
[4] = system: penicillin-susceptible strain of Strep. pneumoniae; conditions: cited from earlier work
L. lactis HP [5] = assay: Deferred antagonism assay (agar overlay); type: cell-based, Lactococcus lactis spp cremoris; conditions: in Table 2 a listed strain = enhanced
Protocol: (§1) Deferred antagonism assays were performed by replicating strains on GM17 agar plates and allowing them to grow overnight before overlaying with either GM17/BHI/TSB-YE/MH agar (0.75% w/v agar) seeded with the appropriate indicator strain. For higher throughput screening of the S29X bank, deferred antagonism assays were performed by replicating strains using a 96 pin replicator (Boekel) or spotting 5 μl of a fresh overnight culture on GM17 agar plates and allowing them to grow overnight. Following overnight growth the strains were subjected to UV radiation for 30 minutes prior to overlaying with either GM17/BHI/TS/MH agar (0.75% w/v agar) seeded with the appropriate indicator

gram-negative = conditions: introduction of positively charged residues; cited from earlier work
S. aureus RF122 = assay: Deferred antagonism assay (agar overlay); type: cell-based, Staphylococcus aureus; conditions: in Table 2 a listed strain = enhanced
Protocol: as §1

Nisin A S29Q: Nisin A derivative with Q at position 29 (ITSISLCTPGCKTGALMGCNMKTATCHCQIHVSK; cysteine pairing not given here; also: lantibiotic nisin-A post-translational modifications, not placed; UniProt P13068 24-57, looked up, variant S29Q)
Measurement of inhibitory zone, Average a + b + c (L. lactis HP [1]): 15.30 mm
Measurement of inhibitory zone, L. lactis HP (a) (L. lactis HP [1]): 15.3 mm
Measurement of inhibitory zone, L. lactis HP (b) (L. lactis HP [1]): 15.2 mm
Measurement of inhibitory zone, L. lactis HP (c) (L. lactis HP [1]): 15.4 mm

Nisin A S29M: Nisin A derivative with M at position 29 (ITSISLCTPGCKTGALMGCNMKTATCHCMIHVSK; cysteine pairing not given here; also: lantibiotic nisin-A post-translational modifications, not placed; UniProt P13068 24-57, looked up, variant S29M)
Measurement of inhibitory zone, Average a + b + c (L. lactis HP [1]): 13.56 mm
Measurement of inhibitory zone, L. lactis HP (a) (L. lactis HP [1]): 13.2 mm
Measurement of inhibitory zone, L. lactis HP (b) (L. lactis HP [1]): 14.5 mm
Measurement of inhibitory zone, L. lactis HP (c) (L. lactis HP [1]): 13.0 mm

Nisin A S29I: Nisin A derivative with I at position 29 (ITSISLCTPGCKTGALMGCNMKTATCHCIIHVSK; cysteine pairing not given here; also: lantibiotic nisin-A post-translational modifications, not placed; UniProt P13068 24-57, looked up, variant S29I)
Measurement of inhibitory zone, Average a + b + c (L. lactis HP [1]): 9.9 mm
Measurement of inhibitory zone, L. lactis HP (a) (L. lactis HP [1]): 9.2 mm
Measurement of inhibitory zone, L. lactis HP (b) (L. lactis HP [1]): 11.3 mm
Measurement of inhibitory zone, L. lactis HP (c) (L. lactis HP [1]): 9.2 mm

M21E (ITSISLCTPGCKTGALMGCNEKTATCHCSIHVSK; UniProt P13068 24-57, looked up, variant M21E)
antimicrobial activity of bioengineered derivative relative to Nisin [2]: detrimental impact

I1W: aromatic residue-containing form of Nisin, literature (WTSISLCTPGCKTGALMGCNMKTATCHCSIHVSK; UniProt P13068 24-57, looked up, variant I1W)
antimicrobial activity of bioengineered derivative relative to Nisin [2]: reduced antimicrobial activity

Nisin A S29L: Nisin A derivative with L at position 29 (ITSISLCTPGCKTGALMGCNMKTATCHCLIHVSK; cysteine pairing not given here; also: lantibiotic nisin-A post-translational modifications, not placed; UniProt P13068 24-57, looked up, variant S29L)
Measurement of inhibitory zone, Average a + b + c (L. lactis HP [1]): 12.76 mm
Measurement of inhibitory zone, L. lactis HP (a) (L. lactis HP [1]): 12.6 mm
Measurement of inhibitory zone, L. lactis HP (b) (L. lactis HP [1]): 13.5 mm
Measurement of inhibitory zone, L. lactis HP (c) (L. lactis HP [1]): 12.2 mm

N20P: Nisin hinge region derivative (Field et al., 2008) (ITSISLCTPGCKTGALMGCPMKTATCHCSIHVSK; cysteine pairing not given here; also: lantibiotic nisin-A post-translational modifications, not placed; UniProt P13068 24-57, looked up, variant N20P)
bioactivity and specific activity against Gram-positive pathogens [3]: enhanced bioactivity and specific activity

N20P/M21P: Nisin peptide with proline incorporation, literature (ITSISLCTPGCKTGALMGCPPKTATCHCSIHVSK; cysteine pairing not given here; also: lantibiotic nisin-A post-translational modifications, not placed; UniProt P13068 24-57, looked up, variant N20P M21P)
pore formation (pore formation): incapable of pore formation

K22S: Nisin hinge region derivative (Field et al., 2008) (ITSISLCTPGCKTGALMGCNMSTATCHCSIHVSK; cysteine pairing not given here; also: lantibiotic nisin-A post-translational modifications, not placed; UniProt P13068 24-57, looked up, variant K22S)
bioactivity and specific activity against Gram-positive pathogens [3]: enhanced bioactivity and specific activity

Nisin
minimum inhibitory concentration (MIC) ([4]; before serial exposure to Nisin (1 mg/L)): 0.4 µg/mL
minimum inhibitory concentration (MIC) ([4]; stable Nisin-resistant mutants after serial exposure to Nisin (1 mg/L)): 6.4 µg/mL

N20F: aromatic residue-containing form of Nisin, literature (ITSISLCTPGCKTGALMGCFMKTATCHCSIHVSK; UniProt P13068 24-57, looked up, variant N20F)
antimicrobial activity of bioengineered derivative relative to Nisin [2]: reduced antimicrobial activity

K22E (ITSISLCTPGCKTGALMGCNMETATCHCSIHVSK; UniProt P13068 24-57, looked up, variant K22E)
antimicrobial activity of bioengineered derivative relative to Nisin [2]: detrimental impact

Nisin F
bioactivity compared to wild type (natural) Nisin variant (L. lactis HP [5]): Nisin A<Nisin F

Nisin A S29H: Nisin A derivative with H at position 29 (ITSISLCTPGCKTGALMGCNMKTATCHCHIHVSK; cysteine pairing not given here; also: lantibiotic nisin-A post-translational modifications, not placed; UniProt P13068 24-57, looked up, variant S29H)
Measurement of inhibitory zone, Average a + b + c (L. lactis HP [1]): 10.93 mm
Measurement of inhibitory zone, L. lactis HP (a) (L. lactis HP [1]): 11.2 mm
Measurement of inhibitory zone, L. lactis HP (b) (L. lactis HP [1]): 10.7 mm
Measurement of inhibitory zone, L. lactis HP (c) (L. lactis HP [1]): 10.9 mm

I30W: aromatic residue-containing form of Nisin, literature (ITSISLCTPGCKTGALMGCNMKTATCHCSWHVSK; UniProt P13068 24-57, looked up, variant I30W)
antimicrobial activity of bioengineered derivative relative to Nisin [2]: reduced antimicrobial activity

Nisin A S29F: Nisin A derivative with F at position 29 (ITSISLCTPGCKTGALMGCNMKTATCHCFIHVSK; cysteine pairing not given here; also: lantibiotic nisin-A post-translational modifications, not placed; UniProt P13068 24-57, looked up, variant S29F)
Measurement of inhibitory zone, Average a + b + c (L. lactis HP [1]): 11.0 mm
Measurement of inhibitory zone, L. lactis HP (a) (L. lactis HP [1]): 10.6 mm
Measurement of inhibitory zone, L. lactis HP (b) (L. lactis HP [1]): 12.2 mm
Measurement of inhibitory zone, L. lactis HP (c) (L. lactis HP [1]): 10.2 mm

M21K (ITSISLCTPGCKTGALMGCNKKTATCHCSIHVSK; UniProt P13068 24-57, looked up, variant M21K)
outcome with respect to anti-gram-negative activity (gram-negative): more beneficial outcome

Nisin Z
bioactivity compared to wild type (natural) Nisin variant (S. aureus RF122): Nisin A<Nisin Z
